The numbers were not newly measured in patent publication US20050266042A1, “Methods and apparatus for treatment of aneurysmal tissue” (Medtronic Vascular, Inc., priority 2004, published 2005), which cites them from elsewhere.

The conditions of this data set: for route of elimination / clearance: in vivo.

As for `NCCCC[C@H](N[C@@H](CCc1ccccc1)C(=O)O)C(=O)N1CCC[C@H]1C(=O)O` [lisinopril], the “time to peak concentrations in the plasma” value (oral administration) was “about 7 hours”.

Turning to `CCOC(=O)[C@H](CCc1ccccc1)N[C@@H](C)C(=O)N1CC2(C[C@H]1C(=O)O)SCCS2` [spirapril], the “route of elimination / clearance” value is “balanced elimination by the liver and kidneys”.

As to `CCC(=O)O[C@@H](O[P@](=O)(CCCCc1ccccc1)CC(=O)N1C[C@H](C2CCCCC2)C[C@H]1C(=O)O)C(C)C` [fosinopril], the “route of elimination / clearance” value was “balanced elimination by the liver and kidneys”.

Regarding `C[C@H](CS)C(=O)N1CCC[C@H]1C(=O)O` [captopril], the bioavailability result (given orally) was “about 75%”.
